Results from US10052320B2, “Substituted quinoxalines as FGFR kinase inhibitors” (ASTEX THERAPEUTICS LIMITED, priority 2011, dated 2018).
Where two headings read alike, the source gives them in different places.

Experiments:
FGFR1 (h) = FGFR1 (h) (Homo sapiens, UniProt P11362); experiment: FGFR1 (enzymatic assay), TR-FRET; assay type: biochemical; details: read-out: FGFR 1 pIC50 (converted)
Method: (§1) In a final reaction volume of 30 μL, FGFR1 (h) (25 ng/ml) was incubated with 50 mM HEPES pH 7.5, 6 mM MnCl2, 1 mM DTT, 0.1 mM Na3VO4, 0.01% Triton-X-100, 500 nM Btn-Flt3 and 5 μM ATP in the presence of compound (1% DMSO final). […] Time-Resolved Fluorescence Resonance Energy Transfer (TR-FRET) signal (ex340 nm. Em 620 nm, em 655 nm) was measured afterwards and results are expressed in RFU (Relative Fluorescence Units).

FGFR2 (h) = FGFR2 (h) (Homo sapiens, UniProt P21802); experiment: FGFR2 (enzymatic assay), TR-FRET; assay type: biochemical; details: read-out: FGFR 2 pIC50 (converted)
Method: as §1, with “μL, FGFR2” for “μL, FGFR1”, “(h) (150” for “(h) (25”, “and 0.4” for “and 5”, “in” for “in RFU”

[1] = target: Ba/F3-FGFR1-transfected cells (Homo sapiens, UniProt P11362); experiment: Ba/F3-FGFR1 (minus IL3) cellular proliferation assay, Alamar Blue; assay type: cell-based; details: minus IL3, 384 well
Method: Ba/F3-FGFR1 (Minus IL3 or Plus IL3) (Cellular Proliferation Assay)
Cells were put in an incubator at 37° C. and 5% CO2. After 24 hours, 10 μl of Alamar Blue solution (0.5 mM K3Fe(CN)6, 0.5 mM KaFe(CN)6, 0.15 mM Resazurin and 100 mM Phosphate Buffer) was added to the wells, incubated for 4 hours at 37° C. and 5% CO2 before RFU's (Relative Fluorescence Units) (ex. 540 nm., em. 590 nm.) were measured in a flurorescence plate reader. […]
(§2) In a 96 well plate, 180 μl cell culture medium (phenol red free RPMI-1640, 10% FBS, 2 mM L-Glutamine and 50 μg/ml Gentamycin) containing 10000 cells per well of Ba/F3-FGFR1-transfected cells were pipette and 20 μl of compound dilution in DMSO was added. Cells were put in an incubator at 37° C. and 5% CO2. After 24 hours, 40 μl of Alamar Blue solution (0.5 mM K3Fe(CN)6, 0.5 mM KaFe(CN)6, 0.15 mM Resazurin and 100 mM Phosphate Buffer) was added to the wells, incubated for 4 hours at 37° C. and 5% CO2 before RFU's (Relative Fluorescence Units) (ex. 540 nm., em. 590 nm.) were measured in a flurorescence plate reader.

[2] = system: Ba/F3-FGFR3-transfected cells in the presence of 10 ng/ml murine IL3; experiment: Ba/F3-FGFR3 (plus IL3) cellular proliferation counterscreen, Alamar Blue; assay type: cell-based; details: Mus musculus
Method: Ba/F3-FGFR3 (Minus IL3 or Plus IL3) (Cellular Proliferation Assay)
as §2, with “a 384” for “a 96”, “plate, 100 nl of compound dilution in DMSO was sprayed before adding 50” for “plate, 180”, “containing 20000” for “containing 10000”, “of Ba/F3-FGFR3-transfected cells.” for “of Ba/F3-FGFR1-transfected cells were pipette and 20 μl of compound dilution in DMSO was added.”, “hours, 10” for “hours, 40”
As a counterscreen the same experiment was performed in the presence of 10 ng/ml murine IL3.
as §2, with “Ba/F3-FGFR3-transfected” for “Ba/F3-FGFR1-transfected”

[3] = system: Ba/F3-Flt3-transfected cells in the presence of 10 ng/ml murine IL3; experiment: Ba/F3-Flt3 (plus IL3) cellular proliferation counterscreen, Alamar Blue; assay type: cell-based; details: Mus musculus, read-out: BAF3-FLT3 (PLUS IL3) 384 well pIC50 (converted)
[4] = plus 10 ng/ml murine IL3, 384 well, read-out: BAF3-FGFR 3 (PLUS IL3) 384 well pIC50 (converted)

Ba/F3-FGFR1-transfected cells, sequence (P11362 whole entry, change not shown): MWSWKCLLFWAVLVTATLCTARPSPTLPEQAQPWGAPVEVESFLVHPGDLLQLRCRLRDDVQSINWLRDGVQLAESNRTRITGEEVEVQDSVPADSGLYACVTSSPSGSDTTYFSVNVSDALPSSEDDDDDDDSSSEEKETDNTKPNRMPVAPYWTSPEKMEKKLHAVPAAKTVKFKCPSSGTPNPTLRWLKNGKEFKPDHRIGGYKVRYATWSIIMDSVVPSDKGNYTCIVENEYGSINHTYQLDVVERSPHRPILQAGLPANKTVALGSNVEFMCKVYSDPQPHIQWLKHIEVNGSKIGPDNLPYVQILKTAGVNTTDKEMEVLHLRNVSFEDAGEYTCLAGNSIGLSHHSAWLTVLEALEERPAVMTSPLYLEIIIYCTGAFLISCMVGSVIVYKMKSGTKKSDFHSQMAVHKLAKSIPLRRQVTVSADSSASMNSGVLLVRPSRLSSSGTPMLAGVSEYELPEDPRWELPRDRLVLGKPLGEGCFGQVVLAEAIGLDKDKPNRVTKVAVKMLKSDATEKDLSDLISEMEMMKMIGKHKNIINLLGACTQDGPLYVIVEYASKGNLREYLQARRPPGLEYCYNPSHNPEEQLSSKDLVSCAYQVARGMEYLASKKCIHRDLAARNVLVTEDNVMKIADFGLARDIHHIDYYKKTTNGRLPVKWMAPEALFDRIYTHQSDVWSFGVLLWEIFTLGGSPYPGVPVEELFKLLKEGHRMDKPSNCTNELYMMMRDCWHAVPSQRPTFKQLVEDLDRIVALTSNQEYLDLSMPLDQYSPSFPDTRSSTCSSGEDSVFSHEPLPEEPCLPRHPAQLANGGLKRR
FGFR2 (h), sequence (P21802 22-821): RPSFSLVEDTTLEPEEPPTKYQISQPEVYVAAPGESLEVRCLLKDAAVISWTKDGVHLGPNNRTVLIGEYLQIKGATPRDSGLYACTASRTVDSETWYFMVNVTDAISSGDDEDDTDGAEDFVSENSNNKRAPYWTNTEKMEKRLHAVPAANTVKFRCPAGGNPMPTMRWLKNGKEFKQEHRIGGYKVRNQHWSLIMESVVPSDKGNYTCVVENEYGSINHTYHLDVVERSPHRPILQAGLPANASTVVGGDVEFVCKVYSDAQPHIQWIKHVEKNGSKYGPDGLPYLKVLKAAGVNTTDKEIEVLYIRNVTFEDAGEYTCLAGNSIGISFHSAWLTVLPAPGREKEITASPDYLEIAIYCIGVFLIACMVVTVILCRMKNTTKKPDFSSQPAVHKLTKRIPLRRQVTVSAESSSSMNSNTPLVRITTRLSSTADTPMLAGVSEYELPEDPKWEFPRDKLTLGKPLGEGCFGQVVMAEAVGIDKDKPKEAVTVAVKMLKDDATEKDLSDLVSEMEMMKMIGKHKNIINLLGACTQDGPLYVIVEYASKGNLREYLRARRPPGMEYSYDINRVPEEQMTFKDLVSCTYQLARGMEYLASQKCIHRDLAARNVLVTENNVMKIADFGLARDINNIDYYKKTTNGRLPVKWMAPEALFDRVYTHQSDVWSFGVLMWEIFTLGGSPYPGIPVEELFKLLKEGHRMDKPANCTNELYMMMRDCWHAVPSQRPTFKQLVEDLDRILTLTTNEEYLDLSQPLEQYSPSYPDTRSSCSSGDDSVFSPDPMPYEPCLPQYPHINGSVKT
FGFR1 (h), sequence (P11362 22-822): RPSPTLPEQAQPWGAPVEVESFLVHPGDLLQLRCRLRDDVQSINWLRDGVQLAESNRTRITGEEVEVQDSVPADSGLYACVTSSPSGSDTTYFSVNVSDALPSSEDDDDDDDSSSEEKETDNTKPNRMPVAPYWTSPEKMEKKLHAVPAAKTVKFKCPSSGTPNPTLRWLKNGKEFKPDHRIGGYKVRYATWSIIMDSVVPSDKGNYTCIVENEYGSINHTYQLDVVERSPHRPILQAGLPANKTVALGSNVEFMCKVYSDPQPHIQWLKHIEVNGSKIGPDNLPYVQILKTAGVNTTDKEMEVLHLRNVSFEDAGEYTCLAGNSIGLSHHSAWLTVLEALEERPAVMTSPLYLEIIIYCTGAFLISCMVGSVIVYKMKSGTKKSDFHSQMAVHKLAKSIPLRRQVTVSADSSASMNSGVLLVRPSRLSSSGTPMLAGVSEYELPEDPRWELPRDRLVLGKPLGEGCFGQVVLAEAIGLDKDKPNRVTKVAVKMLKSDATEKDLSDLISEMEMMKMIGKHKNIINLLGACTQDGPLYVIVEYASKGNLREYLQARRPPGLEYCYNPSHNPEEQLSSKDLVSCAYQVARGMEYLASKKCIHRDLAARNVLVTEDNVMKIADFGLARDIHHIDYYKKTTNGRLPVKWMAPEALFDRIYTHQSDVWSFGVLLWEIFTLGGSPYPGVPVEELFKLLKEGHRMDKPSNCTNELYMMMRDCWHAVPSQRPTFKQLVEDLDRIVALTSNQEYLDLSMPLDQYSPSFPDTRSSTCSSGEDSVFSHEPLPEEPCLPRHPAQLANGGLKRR

SMILES	IC50 (FGFR1 (h)) [nM]	IC50 (FGFR2 (h)) [nM]	BAF3-FGFR 1 (MIN IL3) 384 well pIC50 [1]	IC50 ([2]; plus IL3, 96 well, read-out: BAF3-FGFR 3 (PLUS IL3) 96 well pIC50 (converted)) [nM]	IC50 ([2]; plus IL3, 384 well, read-out: BAF3-FGFR 3 (PLUS IL3) 384 well pIC50 (converted)) [nM]	IC50 ([3]; plus IL3, 384 well) [nM]	IC50 [2, 4] [nM]	IC50 ([3]; plus 10 ng/ml murine IL3) [nM]
COc1cc(OC)cc(N(CC2CC2)c2ccc3ncc(N4CCOCC4)nc3c2)c1 [Compound 63]	537	741	<5	> 10000	> 10000	> 10000		
COc1cc(OC)cc(N(CCNC(C)C)c2ccc3ncc(N4CCC(CN)CC4)nc3c2)c1 [Compound 67]	3.31	6.31	6.23				> 10000	> 10000
COc1cc(OC)cc(N(CCN2CCN(C(C)=O)CC2)c2ccc3ncc(-c4ccc(N)nc4)nc3c2)c1 [Compound 68]	25.7	33.9	6.13				> 10000	> 10000
COc1cc(OC)cc(N(CCNC(C)C)c2ccc3ncc(-n4cnc(CO)c4)nc3c2)c1 [Compound 77]	2.24	9.12	7.12				> 10000	> 10000
COc1cc(OC)cc(N(CCN)c2ccc3ncc(-c4ccn(C)c4)nc3c2)c1 [Compound 79]	1.2	2.63	6.9				> 10000	> 10000
CNc1ccc(-c2cnc3ccc(N(CCCNCC(F)(F)F)c4cc(OC)cc(OC)c4)cc3n2)cn1 [Compound 129]	19.5	37.2	5.62				> 10000	> 10000
COc1cc(OC)cc(N(CCO)c2ccc3ncc(-c4ccnc(C(=O)NCCCCCO)c4)nc3c2)c1 [Compound 139]	31.6	39.8	5.35				> 10000	> 10000
COc1cc(OC)cc(N(CCCO)c2ccc3ncc(-c4ccnc(F)c4)nc3c2)c1 [Compound 142]	12.6	25.1	5.64				> 10000	> 10000
COc1cc(OC)cc(N(CCCNCC(F)(F)F)c2ccc3ncc(-c4ccnc(Cl)c4)nc3c2)c1 [Compound 145]	115	166	<5				> 10000	> 10000
COc1cc(OC)cc(N(CCCNCC(F)(F)F)c2ccc3ncc(-c4ccnc(C(=O)NCCCCCO)c4)nc3c2)c1 [Compound 150]	91.2	70.8	5.16				> 10000	> 10000
COc1cc(OC)cc(N(CCO)c2ccc3ncc(-c4ccccc4CCO)nc3c2)c1 [Compound 151]	282	513	5.52				> 10000	> 10000
COc1cc(OC)cc(N(CCO)c2ccc3ncc(-c4ccc(N5CCN(C(=O)OC(C)(C)C)CC5)cc4)nc3c2)c1 [Compound 156]	45.7	95.5	5.7				> 10000	> 10000
COc1cc(OC)cc(N(CCCNCC(F)(F)F)c2ccc3ncc(C(=O)NCCN4CCOCC4)nc3c2)c1 [Compound 158]	398	661	<5				> 10000	> 10000
COc1cc(OC)cc(N(CCNC(C)C)c2ccc3ncc(C(=O)NCCCN4CCN(C)CC4)nc3c2)c1 [Compound 159]	31.6	66.1	5.74				> 10000	> 10000
COc1cc(OC)cc(N(CCNC(C)C)c2ccc3ncc(C(=O)NCCN4CCOCC4)nc3c2)c1 [Compound 160]	42.7	57.5	5.86				> 10000	> 10000
COc1cc(OC)cc(N(CCNC(C)C)c2ccc3ncc(NCC4CCNCC4)nc3c2)c1 [Compound 161]	5.89	14.1	5.42				> 10000	> 10000
COc1cc(OC)cc(N(CCO)c2ccc3ncc(-c4ccc(N5CCN(C)CC5)nc4)nc3c2)c1 [Compound 163]	7.41	15.8	6.15				> 10000	> 10000
COc1cc(OC)cc(N(CCO)c2ccc3ncc(-c4ccc(N5CCNCC5)nc4)nc3c2)c1 [Compound 165]	3.89	12.6	6.56				> 10000	~5750
COc1cc(OC)cc(N(CCNC(C)C)c2ccc3ncc(-n4cnc(COC(C)=O)c4)nc3c2)c1 [Compound 167]	1.66	7.76	7.13				> 10000	> 10000
COc1cc(OC)cc(N(CCNC(C)C)c2ccc3ncc(-c4ccc(N5CCOCC5)nc4)nc3c2)c1 [Compound 168]	0.955	3.72	7.04				~9330	~8320
COc1cc(OC)cc(N(CCN2CCOCC2)c2ccc3ncc(-c4ccc(N)nc4)nc3c2)c1 [Compound 169]	8.71	15.8	6.37				> 10000	> 10000
COc1cc(OC)cc(N(CCNC(C)C)c2ccc3ncc(-c4ccc(N5CCN(C)CC5)nc4)nc3c2)c1 [Compound 170]	0.813	3.98	6.04				9770	5010
COc1cc(OC)cc(N(CCO)c2ccc3ncc(/C(C)=N/OC(C)(C)C)nc3c2)c1 [Compound 171]	603	724	<5				> 10000	> 10000
COC(=O)C1CCCN1c1cnc2ccc(N(CCO)c3cc(OC)cc(OC)c3)cc2n1 (stereo not drawn) [Compound 172]	107	145	6.6				> 10000	> 10000
COc1cc(OC)cc(N(CCO)c2ccc3ncc(C4=CCN(C(=O)OC(C)(C)C)C4)nc3c2)c1 [Compound 173]	29.5	32.4	5.68				> 10000	> 10000
